ChEMBL document CHEMBL2086335, “Three new 12-carbamoylated streptothricins from Streptomyces sp. I08A 1776” (2012)
In brackets after ≈: the same amount, converted by molar mass.

Assays:
Format in all cases: functional
Staphylococcus aureus = experiment: Antibacterial activity against Staphylococcus aureus ATCC 25923 by microbroth dilution method
Enterococcus faecalis = experiment: Antibacterial activity against Enterococcus faecalis ATCC 29212 by microbroth dilution method
Bacillus subtilis = experiment: Antibacterial activity against Bacillus subtilis ATCC 6633 by microbroth dilution method
[1] = system: Mycobacterium tuberculosis; experiment: Antibacterial activity against Mycobacterium tuberculosis H37Rv by microbroth dilution method
[2] = system: Mycolicibacterium smegmatis; experiment: Antibacterial activity against Mycobacterium smegmatis MC2 155 by microbroth dilution method; settings: str. MC2 155
Pseudomonas aeruginosa = experiment: Antibacterial activity against Pseudomonas aeruginosa ATCC 27853 by microbroth dilution method
Morganella morganii = experiment: Antibacterial activity against multidrug-resistant Morganella morganii 07-09 by microbroth dilution method
Escherichia coli = experiment: Antibacterial activity against Escherichia coli ATCC 25922 by microbroth dilution method
Candida albicans = experiment: Antifungal activity against Candida albicans ATCC 10231 by microbroth dilution method

Question: What does the source list for NCCC[C@H](N)CC(=O)NCCC[C@H](N)CC(=O)N[C@@H]1[C@H](O)[C@@H](O)[C@@H](COC(N)=O)O[C@H]1/N=C1\N[C@@H]2[C@H](O)CNC(=O)[C@H]2N1?
Answer: MIC (Staphylococcus aureus): > 256 µg/mL; MIC (Enterococcus faecalis): > 256 µg/mL; MIC (Bacillus subtilis): 16 µg/mL (≈ 25.4 µM); MIC [1]: 16 µg/mL (≈ 25.4 µM); MIC [2]: 64 µg/mL (≈ 101 µM); MIC (Pseudomonas aeruginosa): > 256 µg/mL; MIC (Morganella morganii): > 256 µg/mL; MIC (Escherichia coli): > 256 µg/mL; MIC (Candida albicans): 32 µg/mL (≈ 50.7 µM)

Question: How did the MIC (Staphylococcus aureus) turn out when CC(=O)N[C@@H](CCCNC(=O)C[C@@H](N)CCCNC(=O)C[C@@H](N)CCCN)CC(=O)N[C@@H]1[C@H](O)[C@@H](O)[C@@H](COC(N)=O)O[C@H]1/N=C1\N[C@H]([C@H](O)CN)[C@@H](C(=O)O)N1 was run?
Answer: > 256 µg/mL

Question: What about the MIC (Enterococcus faecalis) of the same compound?
Answer: > 256 µg/mL

Question: What about the MIC (Bacillus subtilis) of the same compound?
Answer: > 256 µg/mL

Question: And the MIC [1]?
Answer: > 256 µg/mL

Question: And the MIC [2]?
Answer: > 256 µg/mL

Question: What about the MIC (Pseudomonas aeruginosa) of the same compound?
Answer: > 256 µg/mL

Question: And the MIC (Morganella morganii)?
Answer: > 256 µg/mL

Question: And the MIC (Escherichia coli)?
Answer: > 256 µg/mL

Question: And the MIC (Candida albicans)?
Answer: > 256 µg/mL

Question: Which MIC (Staphylococcus aureus) does the source give for C[C@H]1COc2c(N3CCN(C)CC3)c(F)cc3c(=O)c(C(=O)O)cn1c23.C[C@H]1COc2c(N3CCN(C)CC3)c(F)cc3c(=O)c(C(=O)O)cn1c23.O [LEVOFLOXACIN] here?
Answer: 0.12 µg/mL

Question: And the MIC (Enterococcus faecalis)?
Answer: 0.5 µg/mL

Question: What about the MIC (Bacillus subtilis) of the same compound?
Answer: 0.12 µg/mL

Question: What about the MIC [1] of the same compound?
Answer: 0.5 µg/mL

Question: And the MIC [2]?
Answer: 1 µg/mL

Question: What about the MIC (Pseudomonas aeruginosa) of the same compound?
Answer: 0.25 µg/mL

Question: What about the MIC (Morganella morganii) of the same compound?
Answer: 16 µg/mL

Question: And the MIC (Candida albicans)?
Answer: > 256 µg/mL

Question: For CC(=O)N[C@@H](CCCNC(=O)C[C@@H](N)CCCNC(=O)C[C@@H](N)CCCN)CC(=O)N[C@@H]1[C@H](O)[C@@H](O)[C@@H](COC(N)=O)O[C@H]1/N=C1\N[C@@H]2[C@H](O)CNC(=O)[C@H]2N1, which MIC (Staphylococcus aureus) is on record?
Answer: > 256 µg/mL

Question: And the MIC (Enterococcus faecalis)?
Answer: > 256 µg/mL

Question: And the MIC (Bacillus subtilis)?
Answer: 64 µg/mL (≈ 79.9 µM)

Question: What about the MIC [1] of the same compound?
Answer: > 256 µg/mL

Question: What about the MIC [2] of the same compound?
Answer: > 256 µg/mL

Question: And the MIC (Pseudomonas aeruginosa)?
Answer: > 256 µg/mL

Question: What about the MIC (Morganella morganii) of the same compound?
Answer: > 256 µg/mL

Question: What about the MIC (Escherichia coli) of the same compound?
Answer: 64 µg/mL (≈ 79.9 µM)

Question: What about the MIC (Candida albicans) of the same compound?
Answer: > 256 µg/mL

Question: Which MIC (Staphylococcus aureus) does the source give for CC(=O)N[C@@H](CCCNC(=O)C[C@@H](N)CCCNC(=O)C[C@@H](N)CCCN)CC(=O)N[C@@H]1[C@H](O)[C@@H](OC(N)=O)[C@@H](CO)O[C@H]1/N=C1\N[C@H]([C@H](O)CN)[C@@H](C(=O)O)N1 here?
Answer: > 256 µg/mL

Question: And the MIC (Enterococcus faecalis)?
Answer: > 256 µg/mL

Question: And the MIC (Bacillus subtilis)?
Answer: 64 µg/mL (≈ 78.2 µM)

Question: What about the MIC [1] of the same compound?
Answer: > 256 µg/mL

Question: And the MIC [2]?
Answer: > 256 µg/mL

Question: And the MIC (Pseudomonas aeruginosa)?
Answer: > 256 µg/mL

Question: And the MIC (Morganella morganii)?
Answer: > 256 µg/mL

Question: What about the MIC (Escherichia coli) of the same compound?
Answer: 64 µg/mL (≈ 78.2 µM)

Question: What about the MIC (Candida albicans) of the same compound?
Answer: > 256 µg/mL

Question: With CC(=O)N[C@@H](CCCNC(=O)C[C@@H](N)CCCN)CC(=O)N[C@@H]1[C@H](O)[C@@H](O)[C@@H](COC(N)=O)O[C@H]1/N=C1\N[C@@H]2[C@H](O)CNC(=O)[C@H]2N1 as the compound, how does the MIC (Staphylococcus aureus) read?
Answer: > 256 µg/mL

Question: What about the MIC (Enterococcus faecalis) of the same compound?
Answer: > 256 µg/mL

Question: And the MIC (Bacillus subtilis)?
Answer: 128 µg/mL (≈ 190 µM)

Question: And the MIC [1]?
Answer: > 256 µg/mL

Question: And the MIC [2]?
Answer: > 256 µg/mL

Question: And the MIC (Pseudomonas aeruginosa)?
Answer: > 256 µg/mL

Question: What about the MIC (Morganella morganii) of the same compound?
Answer: > 256 µg/mL

Question: And the MIC (Escherichia coli)?
Answer: > 256 µg/mL

Question: And the MIC (Candida albicans)?
Answer: > 256 µg/mL

Question: For CO[C@H]1/C=C/O[C@@]2(C)Oc3c(C)c(O)c4c(O)c(c(/C=N/N5CCN(C)CC5)c(O)c4c3C2=O)NC(=O)/C(C)=C\C=C\[C@H](C)[C@H](O)[C@@H](C)[C@@H](O)[C@@H](C)[C@H](OC(C)=O)[C@@H]1C [RIFAMPIN], which MIC [1] is on record?
Answer: 0.0625 µg/mL (≈ 0.0759 µM)

Question: How did the MIC [1] turn out when NNC(=O)c1ccncc1 [ISONIAZID] was run?
Answer: 0.0625 µg/mL (≈ 0.456 µM)

Question: Which MIC (Staphylococcus aureus) does the source give for NCCC[C@H](N)CC(=O)NCCC[C@H](N)CC(=O)N[C@@H]1[C@H](O)[C@@H](OC(N)=O)[C@@H](CO)O[C@H]1NC1=N[C@@H]2C(=O)NC[C@@H](O)[C@H]2N1 [STREPTOTHRICIN E] here?
Answer: 4 µg/mL (≈ 6.34 µM)

Question: And the MIC (Enterococcus faecalis)?
Answer: 64 µg/mL (≈ 101 µM)

Question: And the MIC (Bacillus subtilis)?
Answer: 1 µg/mL (≈ 1.59 µM)

Question: And the MIC [1]?
Answer: 1 µg/mL (≈ 1.59 µM)

Question: And the MIC [2]?
Answer: 4 µg/mL (≈ 6.34 µM)

Question: What about the MIC (Pseudomonas aeruginosa) of the same compound?
Answer: 64 µg/mL (≈ 101 µM)

Question: And the MIC (Morganella morganii)?
Answer: 4 µg/mL (≈ 6.34 µM)

Question: What about the MIC (Escherichia coli) of the same compound?
Answer: 16 µg/mL (≈ 25.4 µM)

Question: What about the MIC (Candida albicans) of the same compound?
Answer: 1 µg/mL (≈ 1.59 µM)
